Tested on: MDA-MB-231 human breast cancer cell line
Conditions: MDA-MB-231, 10,000 cells/well; same amount of doxorubicin; exosomes 2.56×10^11 particles/mL; FIG. 11

## COc1cccc2c1C(=O)c1c(O)c3c(c(O)c1C2=O)C[C@@](O)(C(=O)CO)C[C@@H]3O[C@H]1C[C@H](N)[C@H](O)[C@H](C)O1 [doxorubicin]
  growth of the breast cancer cells: inhibited the growth of the breast cancer cells

From patent publication US20240018211A1, “EXOSOME COMPRISING OVEREXPRESSED FC RECEPTOR OR PORTION THEREOF, AND METHOD FOR PREPARING SAME” (EXOCOBIO INC, priority 2021, published 2024)
